# Reference: US11723898B2, “Androgen receptor inhibitors for the treatment of non-metastatic castration-resistant prostate cancer in subjects with severe hepatic impairment” (Aragon Pharmaceuticals, Inc., priority 2019, dated 2023)
# How the values were obtained:
# [1] = biological target: T1, T877A AR mutant (Homo sapiens, UniProt P10275, T878A); conditions: cited from earlier work
# T1 sequence (P10275 1-920 T878A): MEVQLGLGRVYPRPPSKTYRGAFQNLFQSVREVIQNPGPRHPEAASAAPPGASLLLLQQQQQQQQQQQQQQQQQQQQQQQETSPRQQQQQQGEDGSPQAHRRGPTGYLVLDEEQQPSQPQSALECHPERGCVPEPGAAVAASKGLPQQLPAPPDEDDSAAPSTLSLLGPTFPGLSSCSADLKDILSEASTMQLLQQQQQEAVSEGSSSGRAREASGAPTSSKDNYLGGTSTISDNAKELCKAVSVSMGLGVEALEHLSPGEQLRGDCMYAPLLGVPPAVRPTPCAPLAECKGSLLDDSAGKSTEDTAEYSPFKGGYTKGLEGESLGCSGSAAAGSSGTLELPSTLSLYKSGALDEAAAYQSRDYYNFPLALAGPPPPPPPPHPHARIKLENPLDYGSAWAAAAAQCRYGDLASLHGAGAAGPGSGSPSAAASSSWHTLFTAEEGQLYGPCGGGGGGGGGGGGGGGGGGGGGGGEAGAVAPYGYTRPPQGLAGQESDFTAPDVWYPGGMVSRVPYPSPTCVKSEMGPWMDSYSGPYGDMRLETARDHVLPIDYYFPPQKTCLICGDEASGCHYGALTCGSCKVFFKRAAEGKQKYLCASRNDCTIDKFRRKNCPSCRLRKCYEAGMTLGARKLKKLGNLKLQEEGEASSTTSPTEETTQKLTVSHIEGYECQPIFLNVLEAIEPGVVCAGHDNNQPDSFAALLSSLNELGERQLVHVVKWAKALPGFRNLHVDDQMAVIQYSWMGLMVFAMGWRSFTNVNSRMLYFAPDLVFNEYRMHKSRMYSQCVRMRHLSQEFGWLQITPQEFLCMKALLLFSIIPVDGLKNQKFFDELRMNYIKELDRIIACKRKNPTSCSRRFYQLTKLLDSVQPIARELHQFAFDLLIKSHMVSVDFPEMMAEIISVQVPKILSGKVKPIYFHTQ
# [2] = biological target: AR (Homo sapiens, UniProt P10275); conditions: cited from earlier work
# AR, sequence (P10275 whole entry): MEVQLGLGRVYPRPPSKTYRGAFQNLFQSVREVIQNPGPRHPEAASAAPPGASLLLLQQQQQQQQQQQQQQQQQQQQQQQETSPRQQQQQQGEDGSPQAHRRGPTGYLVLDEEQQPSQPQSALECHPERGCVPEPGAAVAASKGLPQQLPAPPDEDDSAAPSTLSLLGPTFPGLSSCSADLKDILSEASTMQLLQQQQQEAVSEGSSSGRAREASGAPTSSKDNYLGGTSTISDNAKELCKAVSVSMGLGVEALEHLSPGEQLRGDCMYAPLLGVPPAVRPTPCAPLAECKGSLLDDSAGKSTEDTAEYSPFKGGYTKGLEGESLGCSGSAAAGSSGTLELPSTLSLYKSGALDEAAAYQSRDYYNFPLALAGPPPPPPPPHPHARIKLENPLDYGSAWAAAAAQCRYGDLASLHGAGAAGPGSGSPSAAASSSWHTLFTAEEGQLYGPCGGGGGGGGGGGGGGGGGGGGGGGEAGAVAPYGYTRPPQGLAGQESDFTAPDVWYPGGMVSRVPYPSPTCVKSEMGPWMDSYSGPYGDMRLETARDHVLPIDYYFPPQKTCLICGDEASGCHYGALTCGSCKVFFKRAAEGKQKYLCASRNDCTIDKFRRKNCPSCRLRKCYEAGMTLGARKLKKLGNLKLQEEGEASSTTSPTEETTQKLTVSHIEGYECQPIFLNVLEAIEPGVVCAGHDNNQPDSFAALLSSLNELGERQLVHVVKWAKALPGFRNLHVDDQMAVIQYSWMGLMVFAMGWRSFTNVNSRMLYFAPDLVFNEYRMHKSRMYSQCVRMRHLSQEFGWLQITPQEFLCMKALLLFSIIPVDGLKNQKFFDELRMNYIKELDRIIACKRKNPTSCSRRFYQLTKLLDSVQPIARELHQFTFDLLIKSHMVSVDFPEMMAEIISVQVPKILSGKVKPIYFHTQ
# [3] = pharmacokinetic study data, subjects with mild and moderate hepatic impairment versus healthy controls; assay type: in vivo, human
# [4] = system: non-castrate hormone-sensitive and bicalutamide-resistant human prostate cancer xenograft models; conditions: cited from earlier work
smiles,measurement,setting,value
CC(C)(O)C(=O)Nc1ccc([N+](=O)[O-])c(C(F)(F)F)c1 [hydroxyflutamide],agonist activity,[1],act as AR agonists
"CC(O)c1cc(C(=O)N[C@@H](C)Cn2ccc(-c3ccc(C#N)c(Cl)c3)n2)n[nH]1 (stereo partly drawn) [Darolutamide, N-{(2S)-1-[3-(3-chloro-4-cyanophenyl)-1H-pyrazol-1-yl]propan-2-yl}-5-(1-hydroxyethyl)-1H-pyrazole-3-carboxamide]",binding affinity for AR,[2],high affinity
"CNC(=O)c1ccc(N2C(=S)N(c3cnc(C#N)c(C(F)(F)F)c3)C(=O)C23CCC3)cc1F [apalutamide, 4-[7-(6-cyano-5-trifluoromethylpyridin-3-yl)-8-oxo-6-thioxo-5,7-diazaspiro[3.4]oct-5-yl]-2-fluoro-N-methylbenzamide]",total coefficient of variation (CV) for AUCs (AUClast and AUC∞),[3],≤ 27%
same,total coefficient of variation (CV) for Cmax,[3],≤ 35%
same,tumor regression,[4],partial or complete tumor regression
